The results in this text go back to patent publication US20220169660A1, “CYCLIC AMINO-PYRAZINECARBOXAMIDE COMPOUNDS AND USES THEREOF” (SILVERBACK THERAPEUTICS, INC., priority 2019, published 2022).

The test system of assay [1] is TGFβ/SMAD Singling Pathway SBE reporter cell line. Description: TGFβ reporter assay (in vitro small molecule screening). The format is cell-based. Particulars: SBE luciferase reporter cells, TGFβ stimulation, 18 h, luminescence. The procedure:
TGFβ/SMAD Singling Pathway SBE reporter cell line was obtained from BPS Bioscience. Cells were passed, expanded, and stored in liquid nitrogen as per the supplier's instructions with the exception that growth media is changed to DMEM-C with Geneticin (DMEM supplemented with 10% fetal bovine serum, 1×NEAA, 1 mM Pyruvate, 2 mM glutamine, 50 μg/mL penicillin, 50 U/mL streptomycin and 400 μg/mL of Geneticin). The assay media was MEM supplemented with […] fetal bovine serum, 1×NEAA, 1 mM Pyruvate, 50 μg/mL penicillin and 50 U/mL streptomycin.
Test samples (at desired concentrations diluted in assay media) were added to a 96-well assay plate, 20 μL per well. Reporter cells were harvested from the tissue culture flasks by incubation in small quantity of PBS at 37° C. for two minutes after the media in the flask is removed and cells rinsed with PBS. Cells were counted and diluted in the assay media at approximately 0.5×10^6 cells/mL and then 80 μL/well of cells were added to the assay plate containing the 20 μL/well of test samples (or media only), and incubated for approximately 5-6 hours at 37° C. in a 5% CO2 humidified incubator. After that time, 15 μL of TGFβ diluted to 12 ng/mL in the assay media was added to the plate. Controls included TGFβ titration (from 50 to 0 ng/mL) without inhibitors, and media only (without cells, inhibitor or TGFβ). Plates were incubated at 37° C. in a 5% CO2 humidified incubator for 18 h. Luciferase substrate solution is subsequently added at 100 μL per well, incubated in the dark at room temperature for 15 min, and luminescence is measured using a luminometer. EC50 values and curve fits were obtained using Prism (GraphPad Software).
A general note: A reporter such as luciferase makes a cellular process visible.

Assay [2] addresses T1, TGFBR2 (Homo sapiens, UniProt P37173).
T1 construct: purchased Reaction Biology Corp
The assay is described as follows: TGFBR2 RBC enzyme assay (Reaction Biology Corp.). The format is biochemical. The procedure: Compounds of the disclosure were assayed by Reaction Biology Corp. using the TGFBR2 RBC enzyme assay.

T1 sequence (P37173 23-567): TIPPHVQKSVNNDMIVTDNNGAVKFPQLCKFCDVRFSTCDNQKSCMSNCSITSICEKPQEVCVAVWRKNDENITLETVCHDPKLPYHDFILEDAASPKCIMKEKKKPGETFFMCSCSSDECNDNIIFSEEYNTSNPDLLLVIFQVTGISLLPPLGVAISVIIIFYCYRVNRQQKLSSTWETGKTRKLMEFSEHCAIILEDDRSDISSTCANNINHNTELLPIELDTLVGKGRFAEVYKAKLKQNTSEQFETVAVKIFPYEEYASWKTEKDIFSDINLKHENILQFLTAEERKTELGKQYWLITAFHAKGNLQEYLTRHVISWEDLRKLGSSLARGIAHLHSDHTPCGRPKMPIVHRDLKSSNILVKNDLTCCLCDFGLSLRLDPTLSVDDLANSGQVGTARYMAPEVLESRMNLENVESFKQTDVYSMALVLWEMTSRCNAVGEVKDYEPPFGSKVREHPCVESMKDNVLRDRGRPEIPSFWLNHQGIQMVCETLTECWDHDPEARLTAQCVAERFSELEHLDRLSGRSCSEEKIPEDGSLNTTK

In general, EC50 refers to the concentration that produces a half-maximal response. A high value points to a need for much substance. With `CN1CCCOc2cccc(c2)-c2cnc(N)c(n2)C(=O)Nc2cnccc21` [Compound 6, 2^5-amino-6-methyl-10-oxa-4,6-diaza-2(2,6)-pyrazina-5(3,4)-pyridina-1(1,3)-benzenacyclodecaphan-3-one], the results for the EC50 in assay [1] and in assay [2] were 1 to 1000 nM and 1 to 100 nM, respectively.

`CN1CCC(=O)Nc2cccc(c2)-c2cnc(N)c(n2)C(=O)Nc2cnccc21` [Compound 26, 2^5-amino-6-methyl-4,6,10-triaza-2(2,6)-pyrazina-5(3,4)-pyridina-1(1,3)-benzenacyclodecaphene-3,9-dione]: the EC50 in assay [1] was in the range of 1 to 1000 nM; in assay [2], 1 to 100 nM.

Consider `CN1CCCCOc2ccccc2-c2cnc(N)c(n2)C(=O)Nc2cnccc21` [Compound 34, 2^5-amino-6-methyl-11-oxa-4,6-diaza-2(2,6)-pyrazina-5(3,4)-pyridina-1(1,2)-benzenacycloundecaphan-3-one], for which the figures for the EC50 in assay [1] and in assay [2] were 1000 to 5000 nM and 100 to 1000 nM, respectively.

On to `Nc1ncc2nc1C(=O)Nc1cnccc1NCCOCCOCCOCCOc1cccc-2c1` [Compound 7, 2^5-amino-9,12,15,18-tetraoxa-4,6-diaza-2(2,6)-pyrazina-5(3,4)-pyridina-1(1,3)-benzenacyclooctadecaphan-3-one], for which the EC50 in assay [1] was above 5000 nM; in assay [2] it was above 1000 nM.

`CN1CCCOc2cc(ccc2OCCCN)-c2cnc(N)c(n2)C(=O)Nc2cnccc21` [Compound 61, 2^5-amino-1^4-(3-aminopropoxy)-6-methyl-10-oxa-4,6-diaza-2(2,6)-pyrazina-5(3,4)-pyridina-1(1,3)-benzenacyclodecaphan-3-one]: the EC50 in assay [1] lay in the range of 1 to 1000 nM; in assay [2], 1 to 100 nM.

Regarding `CN1C[C@@H](CN)Oc2ccccc2-c2cnc(N)c(n2)C(=O)Nc2cnccc21` [Compound 60, (R)-2^5-amino-8-(aminomethyl)-6-methyl-9-oxa-4,6-diaza-2(2,6)-pyrazina-5(3,4)-pyridina-1(1,2)-benzenacyclononaphan-3-one], the EC50 in assay [1] is 1000 to 5000 nM; in assay [2], above 1000 nM.

`CC(C)(C)OC(=O)N1C[C@H]2C[C@H]1COc1ccncc1NC(=O)c1nc(cnc1N)-c1cccc(c1)O2` (racemic) [Compound 39, (±)-tert-butyl(4^3,4^5-trans)-1^5-amino-9-oxo-3,6-dioxa-8-aza-1(2,6)-pyrazina-7(4,3)-pyridina-4(3,5)-pyrrolidina-2(1,3)-benzenacyclononaphane-41-carboxylate]: the EC50 is above 5000 nM in assay [1] and above 1000 nM in assay [2].

As to `Cc1ccc2cc1OCCCN(C)c1ccncc1NC(=O)c1nc-2cnc1N` [Compound 12, 2^5-amino-1^4,6-dimethyl-10-oxa-4,6-diaza-2(2,6)-pyrazina-5(3,4)-pyridina-1(1,3)-benzenacyclodecaphan-3-one], the EC50 in assay [1] lay within 1 to 1000 nM; in assay [2] it was 1 to 100 nM.

As for `CN1CCCOc2cc(OCCCN3C(=O)c4ccccc4C3=O)cc(c2)-c2cnc(N)c(n2)C(=O)Nc2cnccc21` [Compound 14, 2-(3-((2^5-amino-6-methyl-3-oxo-10-oxa-4,6-diaza-2(2,6)-pyrazina-5(3,4)-pyridina-1(1,3)-benzenacyclodecaphane-1^5-yl)oxy)propyl)isoindoline-1,3-dione], the EC50 in assay [1] is 1 to 1000 nM; in assay [2], 1 to 100 nM.

With `Nc1ncc2nc1C(=O)Nc1cnccc1N1CCOC(COc3cccc-2c3)C1` (stereo not shown) [Compound 8, 5^3-amino-7-oxa-3-aza-1(4,2)-morpholina-5(2,6)-pyrazina-2(4,3)-pyridina-6(1,3)-benzenacyclooctaphan-4-one], the values for the 50% effective concentration (EC50) in assay [1] and in assay [2] were 1000 to 5000 nM and 100 to 1000 nM, respectively.

`Nc1ncc2nc1C(=O)Nc1cnccc1OCCOc1ccc(Br)c-2c1` [Compound 49, 2^5-amino-16-bromo-6,9-dioxa-4-aza-2(2,6)-pyrazina-5(3,4)-pyridina-1(1,3)-benzenacyclononaphan-3-one]: the EC50 in assay [1] lay within 1 to 1000 nM; in assay [2], 1 to 100 nM.

As to `CN1CCOCc2cccc(c2)-c2cnc(N)c(n2)C(=O)Nc2cnccc21` [Compound 15, 2^5-amino-6-methyl-9-oxa-4,6-diaza-2(2,6)-pyrazina-5(3,4)-pyridina-1(1,3)-benzenacyclodecaphan-3-one], the figures for the EC50 in assay [1] and in assay [2] were 1 to 1000 nM and 1 to 100 nM, respectively.

For the compound `CN1C[C@H](CNCc2ccccc2)Oc2ccccc2-c2cnc(N)c(n2)C(=O)Nc2cnccc21` [Compound 59, (S)-2^5-amino-8-((benzylamino)methyl)-6-methyl-9-oxa-4,6-diaza-2(2,6)-pyrazina-5(3,4)-pyridina-1(1,2)-benzenacyclononaphan-3-one], the figures for the EC50 in assay [1] and in assay [2] were above 5000 nM and above 1000 nM, respectively.

For `CN1CCCCOc2cccc(c2)-c2cnc(N)c(n2)C(=O)Nc2cnccc21` [Compound 5, 2^5-amino-6-methyl-11-oxa-4,6-diaza-2(2,6)-pyrazina-5(3,4)-pyridina-1(1,3)-benzenacycloundecaphan-3-one], the EC50 in assay [1] fell in the range of 1 to 1000 nM; in assay [2], 1 to 100 nM.

For `Nc1ncc2nc1C(=O)Nc1cnccc1O[C@@H]1CN[C@H](COc3cccc-2c3)C1` (racemic) [Compound 38, (±)-(5^2,5^4-cis)-1^5-amino-3,6-dioxa-8-aza-1(2,6)-pyrazina-7(4,3)-pyridina-5(2,4)-pyrrolidina-2(1,3)-benzenacyclononaphan-9-one], the EC50 lay within 1 to 1000 nM in assay [1] and 1 to 100 nM in assay [2].

Consider `Nc1ncc2nc1C(=O)Nc1cnccc1N1CCC(COc3cccc-2c3)C1` (stereo not shown) [Compound 25, 1^5-amino-3-oxa-7-aza-1(2,6)-pyrazina-6(4,3)-pyridina-5(3,1)-pyrrolidina-2(1,3)-benzenacyclooctaphan-8-one], for which the values for the EC50 in assay [1] and in assay [2] were 1 to 1000 nM and 1 to 100 nM, respectively.

With `CN1CCOc2cccc(c2)-c2cnc(N)c(n2)C(=O)Nc2cnccc21` [Compound 11, 2^5-amino-6-methyl-9-oxa-4,6-diaza-2(2,6)-pyrazina-5(3,4)-pyridina-1(1,3)-benzenacyclononaphan-3-one], the EC50 in assay [1] lay within 1 to 1000 nM; in assay [2] it was 1 to 100 nM.

Regarding `Nc1ncc2nc1C(=O)Nc1cnccc1OCCOc1cccc-2c1` [Compound 50, 2^5-amino-6,9-dioxa-4-aza-2(2,6)-pyrazina-5(3,4)-pyridina-1(1,3)-benzenacyclononaphan-3-one], the EC50 is 1 to 1000 nM in assay [1] and 1 to 100 nM in assay [2].

With `Nc1ncc2nc1C(=O)Nc1cnccc1NCCCCCOc1cccc-2c1` [Compound 3, 2^5-amino-12-oxa-4,6-diaza-2(2,6)-pyrazina-5(3,4)-pyridina-1(1,3)-benzenacyclododecaphan-3-one], the figures for the EC50 in assay [1] and in assay [2] were above 5000 nM and above 1000 nM, respectively.

Regarding `CN1CCOc2ccc(OCCCN)cc2-c2cnc(N)c(n2)C(=O)Nc2cnccc21` [Compound 64, 2^5-amino-1^5-(3-aminopropoxy)-6-methyl-9-oxa-4,6-diaza-2(2,6)-pyrazina-5(3,4)-pyridina-1(1,2)-benzenacyclononaphan-3-one], the EC50 fell in the range of 1 to 1000 nM in assay [1] and 1 to 100 nM in assay [2].

For `Nc1ncc2nc1C(=O)Nc1cnccc1NCCCCOc1cccc-2c1` [Compound 2, 2^5-amino-11-oxa-4,6-diaza-2(2,6)-pyrazina-5(3,4)-pyridina-1(1,3)-benzenacycloundecaphan-3-one], the EC50 in assay [1] was above 5000 nM; in assay [2], above 1000 nM.

For `Nc1ncc2nc1C(=O)Nc1cnccc1NCCCOc1cccc-2c1` [Compound 4, 2^5-amino-10-oxa-4,6-diaza-2(2,6)-pyrazina-5(3,4)-pyridina-1(1,3)-benzenacyclodecaphan-3-one], the EC50 lay within 1 to 1000 nM in assay [1] and 1 to 100 nM in assay [2].

In the case of `CC1OCCN(C)c2ccncc2NC(=O)c2nc(cnc2N)-c2cccc1c2` (stereo not shown) [Compound 20], the EC50 in assay [1] lay within 1 to 1000 nM; in assay [2], 1 to 100 nM.

As for `Nc1ncc2nc1C(=O)Nc1cnccc1O[C@@H]1CN[C@@H](COc3cccc-2c3)C1` (racemic) [Compound 36, (±)-(5^2,5^4-trans)-1^5-amino-3,6-dioxa-8-aza-1(2,6)-pyrazina-7(4,3)-pyridina-5(2,4)-pyrrolidina-2(1,3)-benzenacyclononaphan-9-one], the EC50 is above 5000 nM in assay [1] and above 1000 nM in assay [2].

Regarding `Nc1ncc2nc1C(=O)Nc1cnccc1N1CCC(CC1)Oc1cccc-2c1` [Compound 23, 1^5-amino-3-oxa-6-aza-1(2,6)-pyrazina-5(4,3)-pyridina-4(4,1)-piperidina-2(1,3)-benzenacycloheptaphan-7-one], the EC50 in assay [1] is above 5000 nM; in assay [2] it was above 1000 nM.

Consider `CCN1CCCOc2cccc(c2)-c2cnc(N)c(n2)C(=O)Nc2cnccc21` [Compound 13, 2^5-amino-6-ethyl-10-oxa-4,6-diaza-2(2,6)-pyrazina-5(3,4)-pyridina-1(1,3)-benzenacyclodecaphan-3-one], for which the EC50 in assay [1] lay in the range of 1 to 1000 nM; in assay [2] it was 100 to 1000 nM.
